# Assay results published in patent US20260097047A1, “Small molecule inhibitors of the ribosome biogenesis factor NVL2” (Board of Regents, The University of Texas System, priority 2023, published 2026).
# Tested on: HCT116 cells
# Assay: Cell viability assay (CellTiter-Glo, 72 hours) in HCT116 human colorectal cancer cells
# Type: cell-based
# Details: Table 7; cell viability assay, CellTiter-Glo, 72 hours; scaffold drawing 42 with R^2, R^3, X/Y, Z; read-out: Activity
# Summary of the method: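 2,000 cells/well adhered overnight, then compound added by digital dispenser with DMSO normalized to 0.5%. Viability read after 72 h at 37 °C by ATP-based CellTiter-Glo luminescence. IC50 from ten-point curves baseline-corrected to vehicle, five-parameter asymmetric least-squares fit.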
row,IC50 [nM],SMILES
1,500 to 1000,COCCN1C(=O)c2ccccc2Sc2cc(NC(=O)c3cccc(C(=O)N(C)C)c3)ccc21 [—(CH2)2OMe; 3-Me2NC(O)Ph; CH/CH; S]
2,1000 to 5000,CNC(=O)c1cccc(C(=O)Nc2ccc3c(c2)Sc2ccccc2C(=O)N3CCOC)c1 [—(CH2)2OMe; 3-MeNHC(O)Ph; CH/CH; S]
3,500 to 1000,"COCCN1C(=O)c2ccccc2Sc2cc(NC(=O)c3ccc(Cl)c(OC)c3)ccc21 [—(CH2)2OMe; 3-MeO,4-ClPh; CH/CH; S]"
4,500 to 1000,"COCCN1C(=O)c2ccccc2Sc2cc(NC(=O)c3ccc(F)c(OC)c3)ccc21 [—(CH2)2OMe; 3-MeO,4-FPh; CH/CH; S]"
5,< 500,COCCN1C(=O)c2ccccc2Sc2cc(NC(=O)c3cccc(OC)c3)ccc21 [—(CH2)2OMe; 3-MeOPh; CH/CH; S]
6,1000 to 5000,COCCN1C(=O)c2ccccc2Sc2cc(NC(=O)C3CC(=O)C3)ccc21 [—(CH2)2OMe; 3-oxo-cBu; CH/CH; S]
7,1000 to 5000,COCCN1C(=O)c2ccccc2Sc2cc(NC(=O)c3ccc(CN)cc3)ccc21 [—(CH2)2OMe; 4-(NH2CH2)Ph; CH/CH; S]
8,1000 to 5000,COCCN1C(=O)c2ccccc2Sc2cc(NC(=O)c3ccc(OC(F)(F)F)cc3)ccc21 [—(CH2)2OMe; 4-CF3OPh; CH/CH; S]
9,1000 to 5000,COCCN1C(=O)c2ccccc2Sc2cc(NC(=O)c3ccc(C(F)(F)F)cc3)ccc21 [—(CH2)2OMe; 4-CF3Ph; CH/CH; S]
10,500 to 1000,COCCN1C(=O)c2ccccc2Sc2cc(NC(=O)c3ccc(OC(F)F)cc3)ccc21 [—(CH2)2OMe; 4-F2HCOPh; CH/CH; S]
11,< 500,COCCN1C(=O)c2ccccc2Sc2cc(NC(=O)c3ccc(OCF)cc3)ccc21 [—(CH2)2OMe; 4-FH2COPh; CH/CH; S]
12,1000 to 5000,COCCN1C(=O)c2ccccc2Sc2cc(NC(=O)c3ccc(F)cc3)ccc21 [—(CH2)2OMe; 4-FPh; CH/CH; S]
13,500 to 1000,C#Cc1ccc(C(=O)Nc2ccc3c(c2)Sc2ccccc2C(=O)N3CCOC)cc1 [—(CH2)2OMe; 4-HCCPh; CH/CH; S]
14,< 500,COCCN1C(=O)c2ccccc2Sc2cc(NC(=O)c3ccc(OC)cc3)ccc21 [—(CH2)2OMe; 4-MeOPh; CH/CH; S]
15,1000 to 5000,COCCN1C(=O)c2ccccc2Sc2cc(NC(=O)c3ccc(C)cc3)ccc21 [—(CH2)2OMe; 4-MePh; CH/CH; S]
16,1000 to 5000,COCCN1C(=O)c2ccccc2Sc2cc(NC(=O)c3ccc(N=[N+]=[N-])cc3)ccc21 [—(CH2)2OMe; 4-N3Ph; CH/CH; S]
17,1000 to 5000,CCCOc1ccc(C(=O)Nc2ccc3c(c2)Sc2ccccc2C(=O)N3CCOC)cc1 [—(CH2)2OMe; 4-PrOPh; CH/CH; S]
18,1000 to 5000,C#Cc1ccc(C(=O)Nc2ccc3c(c2)Sc2ccccc2C(=O)N3CCOC)cn1 [—(CH2)2OMe; 6-(HCC)pyrid-3-yl; CH/CH; S]

row,IC50 [nM],SMILES
1,1000 to 5000,COCCN1C(=O)c2ccccc2Sc2cc(NC(C)=O)ccc21 [—(CH2)2OMe; Me; CH/CH; S]
2,500 to 1000,COCCN1C(=O)c2ccccc2Sc2cc(NC(=O)C3CCC3)ccc21 [—(CH2)2OMe; cBu; CH/CH; S]
3,1000 to 5000,COCCN1C(=O)c2ccccc2Sc2cc(NC(=O)C3CCCCCC3)ccc21 [—(CH2)2OMe; cHeptyl; CH/CH; S]
4,1000 to 5000,COCCN1C(=O)c2ccccc2Sc2cc(NC(=O)C3CCCCC3)ccc21 [—(CH2)2OMe; cHex; CH/CH; S]
5,1000 to 5000,COCCN1C(=O)c2ccccc2Sc2cc(NC(=O)C3CC3)ccc21 [—(CH2)2OMe; cPr; CH/CH; S]
6,< 500,COCCN1C(=O)c2ccc(F)cc2Sc2cc(NC(=O)c3ccoc3)ccc21 [—(CH2)2OMe; furan-3-yl; CF/CH; S]
7,< 500,COCCN1C(=O)c2cc(F)ccc2Sc2cc(NC(=O)c3ccoc3)ccc21 [—(CH2)2OMe; furan-3-yl; CH/CF; S]
8,1000 to 5000,COCCN1C(=O)c2ccccc2Cc2cc(NC(=O)c3ccoc3)ccc21 [—(CH2)2OMe; furan-3-yl; CH/CH; CH2]
9,1000 to 5000,COCCN1C(=O)c2ccccc2Sc2cc(NC(=O)c3ccno3)ccc21 [—(CH2)2OMe; isoxazol-5-yl; CH/CH; S]
10,1000 to 5000,COCCN1C(=O)c2ccccc2Sc2cc(NC(=O)c3cocn3)ccc21 [—(CH2)2OMe; oxazol-4-yl; CH/CH; S]
11,1000 to 5000,COCCN1C(=O)c2ccccc2Sc2cc(NC(=O)c3cnccn3)ccc21 [—(CH2)2OMe; pyrazin-2-yl; CH/CH; S]
12,1000 to 5000,COCCN1C(=O)c2ccccc2Sc2cc(NC(=O)c3ccncc3)ccc21 [—(CH2)2OMe; pyrid-4-yl; CH/CH; S]
13,1000 to 5000,COCCN1C(=O)c2ccccc2Sc2cc(NC(=O)c3ncccn3)ccc21 [—(CH2)2OMe; pyrimidin-2-yl; CH/CH; S]
14,1000 to 5000,COCCN1C(=O)c2ccccc2Sc2cc(NC(=O)c3ccncn3)ccc21 [—(CH2)2OMe; pyrimidin-4-yl; CH/CH; S]
15,1000 to 5000,COCCN1C(=O)c2ccccc2Sc2cc(NC(=O)C3CC34CC4)ccc21 (centres unmarked) [—(CH2)2OMe; spiro[2.2]pentanyl; CH/CH; S]
16,1000 to 5000,COCCN1C(=O)c2ccccc2Sc2cc(NC(=O)c3cscn3)ccc21 [—(CH2)2OMe; thiazol-4-yl; CH/CH; S]
17,< 500,CCCOCCN1C(=O)c2ccccc2Sc2cc(NC(=O)c3ccc(OC)cc3)ccc21 [—(CH2)2OPr; 4-MeOPh; CH/CH; S]
18,1000 to 5000,CNC(=O)CCCCCN1C(=O)c2ccccc2Sc2cc(NC(=O)c3ccoc3)ccc21 [—(CH2)5CONHMe; furan-3-yl; CH/CH; S]

# More lines, now with the values behind:
row,SMILES,IC50 [nM]
1,C#CCOCCN1C(=O)c2ccccc2Sc2cc(NC(=O)c3ccc(OC)cc3)ccc21 [—(CH2)2OCH2CCH; 4-MeOPh; CH/CH; S],< 500
2,C#CCOCCN1C(=O)c2ccccc2Sc2cc(NC(=O)c3ccc(N=[N+]=[N-])cc3)ccc21 [—(CH2)2OCH2CCH; 4-N3Ph; CH/CH; S],< 500
3,C#CCOCCN1C(=O)c2ccccc2Sc2cc(NC(=O)c3ccoc3)ccc21 [—(CH2)2OCH2CCH; furan-3-yl; CH/CH; S],< 500
4,O=C(Nc1ccc2c(c1)Sc1ccccc1C(=O)N2CCO)c1ccoc1 [—(CH2)2OH; furan-3-yl; CH/CH; S],1000 to 5000
5,"COCCN1C(=O)c2ccccc2Sc2cc(NC(=O)c3cc(C)oc3C)ccc21 [—(CH2)2OMe; 2,5-Me2-furan-3-yl; CH/CH; S]",1000 to 5000
6,C#Cc1cc(C(=O)Nc2ccc3c(c2)Sc2ccccc2C(=O)N3CCOC)ccn1 [—(CH2)2OMe; 2-(HCC)pyrid-4-yl; CH/CH; S],1000 to 5000
7,"COCCN1C(=O)c2ccccc2Sc2cc(NC(=O)c3ccc(OC)cc3F)ccc21 [—(CH2)2OMe; 2-F,4-MeOPh; CH/CH; S]",500 to 1000
8,"COCCN1C(=O)c2ccccc2Sc2cc(NC(=O)c3ccc(OC)cc3C)ccc21 [—(CH2)2OMe; 2-Me,4-MeOPh; CH/CH; S]",1000 to 5000
9,COCCN1C(=O)c2ccccc2Sc2cc(NC(=O)c3ccoc3C)ccc21 [—(CH2)2OMe; 2-Me-furan-3-yl; CH/CH; S],500 to 1000
10,COCCN1C(=O)c2ccccc2Sc2cc(NC(=O)c3ccccc3OC)ccc21 [—(CH2)2OMe; 2-MeOPh; CH/CH; S],< 500
11,COCCN1C(=O)c2ccccc2Sc2cc(NC(=O)c3ccc4ccccc4c3)ccc21 [—(CH2)2OMe; 2-naphtyl; CH/CH; S],1000 to 5000
12,"COCCN1C(=O)c2ccccc2Sc2cc(NC(=O)c3ccc(Cl)c(Cl)c3)ccc21 [—(CH2)2OMe; 3,4-Cl2Ph; CH/CH; S]",1000 to 5000
13,"COCCN1C(=O)c2ccccc2Sc2cc(NC(=O)c3ccc(F)c(F)c3)ccc21 [—(CH2)2OMe; 3,4-F2Ph; CH/CH; S]",1000 to 5000
14,"COCCN1C(=O)c2ccccc2Sc2cc(NC(=O)c3cc(F)c(OC)c(F)c3)ccc21 [—(CH2)2OMe; 3,5-F2,4-MeOPh; CH/CH; S]",500 to 1000
15,COCCN1C(=O)c2ccccc2Sc2cc(NC(=O)c3cccc(CCC#N)c3)ccc21 [—(CH2)2OMe; 3-(2′-CNEt)Ph; CH/CH; S],< 500
16,COCCN1C(=O)c2ccccc2Sc2cc(NC(=O)c3cccc(C(F)(F)F)c3)ccc21 [—(CH2)2OMe; 3-CF3Ph; CH/CH; S],1000 to 5000
17,COCCN1C(=O)c2ccccc2Sc2cc(NC(=O)c3cccc(C#N)c3)ccc21 [—(CH2)2OMe; 3-CNPh; CH/CH; S],1000 to 5000
18,"COCCN1C(=O)c2ccccc2Sc2cc(NC(=O)c3ccc(F)c(Cl)c3)ccc21 [—(CH2)2OMe; 3-Cl,4-FPh; CH/CH; S]",1000 to 5000
19,"COCCN1C(=O)c2ccccc2Sc2cc(NC(=O)c3ccc(NC=O)c(Cl)c3)ccc21 [—(CH2)2OMe; 3-Cl,4-HC(O)NHPh; CH/CH; S]",1000 to 5000
20,COCCN1C(=O)c2ccccc2Sc2cc(NC(=O)c3cccc(Cl)c3)ccc21 [—(CH2)2OMe; 3-ClPh; CH/CH; S],1000 to 5000
21,"COCCN1C(=O)c2ccccc2Sc2cc(NC(=O)c3ccc(OC(F)F)c(F)c3)ccc21 [—(CH2)2OMe; 3-F,4-F2HCOPh; CH/CH; S]",1000 to 5000
22,"COCCN1C(=O)c2ccccc2Sc2cc(NC(=O)c3ccc(OC(F)(F)F)c(F)c3)ccc21 [—(CH2)2OMe; 3-F,4-F3COPh; CH/CH; S]",1000 to 5000
23,"COCCN1C(=O)c2ccccc2Sc2cc(NC(=O)c3ccc(OC)c(F)c3)ccc21 [—(CH2)2OMe; 3-F,4MeOPh; CH/CH; S]",500 to 1000
24,COCCN1C(=O)c2ccccc2Sc2cc(NC(=O)c3cccc(OCF)c3)ccc21 [—(CH2)2OMe; 3-FH2COPh; CH/CH; S],< 500
25,COCCN1C(=O)c2ccccc2Sc2cc(NC(=O)c3cccc(F)c3)ccc21 [—(CH2)2OMe; 3-FPh; CH/CH; S],1000 to 5000
26,COCCN1C(=O)c2ccccc2Sc2cc(NC(=O)c3cccc(C(N)=O)c3)ccc21 [—(CH2)2OMe; 3-H2NC(O)Ph; CH/CH; S],1000 to 5000

# Same assay, conditions: Table 8; analogs of scaffold drawing 43 defined by R^2, R^3, X/Y, W; read-out: Activity (IC50 class, cell viability assay)
row,IC50 [nM],SMILES
1,< 500,COCC1CC(C(=O)Nc2ccc3c(c2)Sc2ccccc2C(=O)N3CC#CC(F)(F)F)C1 (centres unmarked) [—CH2CCCF3; 3-MeOCH2-cBu; CH/CH; CH]
2,< 500,COCC1CC(C(=O)Nc2cnc3c(c2)Sc2ccccc2C(=O)N3CC#CC(F)(F)F)C1 (centres unmarked) [—CH2CCCF3; 3-MeOCH2-cBu; CH/CH; N]
3,< 500,COc1ccc(C(=O)Nc2ccc3c(c2)Sc2ccccc2C(=O)N3CC#CC(F)(F)F)cc1 [—CH2CCCF3; 4-MeOPh; CH/CH; CH]
